The values below come from patent US5972598A, “Methods for preventing multidrug resistance in cancer cells” (priority 1995, dated 1999).

Where two headings read alike, the source gives them in different places.

Data set [1] has as its system MDR1. It counts as cell-based, human. How it is done: The times of drug exposure are indicated.
(§1) (Commercially-available kits (for example, from GIBCO/BRL, Gaithersburg, Md.) can be advantageously modified for making cDNA using random hexamers.) PCR is then performed using the following primers: […]
Next, it was tested whether drug-induced MDR1 expression was maintained after the cytotoxic treatment. […] At different time points, MDR1 expression in the surviving cells was analyzed by dye efflux and immunofluorescence labeling with UIC2 (FIG. 3c) or by cDNA-PCR (FIG. 4e).

In a further data set the test system is MRP. Put plainly: Inhibition of MRP expression in H-9 cells. It counts as cell-based, human. The conditions noted are these: 25 μM Ara-C, data not shown. How it is done:
PCR was performed using the following primers: […]
(where β2 M represents β2 microglobulin). PCR was performed for β2 M experiments under a regime consisting of 1 cycle comprising denaturation at 94° C. for 3 minutes, primer annealing at 60° C. for 30 seconds, and primer extension at 72° C. for 1 minute, followed by 19 cycles comprising denaturation at 94° C. for 30 seconds, primer annealing at 60° C. for 30 seconds, and primer extension at 72° C. for 1 minute, followed by a final cycle comprising denaturation at 94° C. for 30 seconds, primer annealing at 60° C. for 30 seconds, and primer extension at 72° C. for 5 minutes.

The target of data set [2] is T1, P-glycoprotein (Homo sapiens, UniProt P08183). Nature of the data set: Dye efflux (Rh123 or DiOC2 (3)) assay of drug-treated K562 cells. The settings on record: Ara-C 12-72 hours.
T1 sequence (P08183 whole entry): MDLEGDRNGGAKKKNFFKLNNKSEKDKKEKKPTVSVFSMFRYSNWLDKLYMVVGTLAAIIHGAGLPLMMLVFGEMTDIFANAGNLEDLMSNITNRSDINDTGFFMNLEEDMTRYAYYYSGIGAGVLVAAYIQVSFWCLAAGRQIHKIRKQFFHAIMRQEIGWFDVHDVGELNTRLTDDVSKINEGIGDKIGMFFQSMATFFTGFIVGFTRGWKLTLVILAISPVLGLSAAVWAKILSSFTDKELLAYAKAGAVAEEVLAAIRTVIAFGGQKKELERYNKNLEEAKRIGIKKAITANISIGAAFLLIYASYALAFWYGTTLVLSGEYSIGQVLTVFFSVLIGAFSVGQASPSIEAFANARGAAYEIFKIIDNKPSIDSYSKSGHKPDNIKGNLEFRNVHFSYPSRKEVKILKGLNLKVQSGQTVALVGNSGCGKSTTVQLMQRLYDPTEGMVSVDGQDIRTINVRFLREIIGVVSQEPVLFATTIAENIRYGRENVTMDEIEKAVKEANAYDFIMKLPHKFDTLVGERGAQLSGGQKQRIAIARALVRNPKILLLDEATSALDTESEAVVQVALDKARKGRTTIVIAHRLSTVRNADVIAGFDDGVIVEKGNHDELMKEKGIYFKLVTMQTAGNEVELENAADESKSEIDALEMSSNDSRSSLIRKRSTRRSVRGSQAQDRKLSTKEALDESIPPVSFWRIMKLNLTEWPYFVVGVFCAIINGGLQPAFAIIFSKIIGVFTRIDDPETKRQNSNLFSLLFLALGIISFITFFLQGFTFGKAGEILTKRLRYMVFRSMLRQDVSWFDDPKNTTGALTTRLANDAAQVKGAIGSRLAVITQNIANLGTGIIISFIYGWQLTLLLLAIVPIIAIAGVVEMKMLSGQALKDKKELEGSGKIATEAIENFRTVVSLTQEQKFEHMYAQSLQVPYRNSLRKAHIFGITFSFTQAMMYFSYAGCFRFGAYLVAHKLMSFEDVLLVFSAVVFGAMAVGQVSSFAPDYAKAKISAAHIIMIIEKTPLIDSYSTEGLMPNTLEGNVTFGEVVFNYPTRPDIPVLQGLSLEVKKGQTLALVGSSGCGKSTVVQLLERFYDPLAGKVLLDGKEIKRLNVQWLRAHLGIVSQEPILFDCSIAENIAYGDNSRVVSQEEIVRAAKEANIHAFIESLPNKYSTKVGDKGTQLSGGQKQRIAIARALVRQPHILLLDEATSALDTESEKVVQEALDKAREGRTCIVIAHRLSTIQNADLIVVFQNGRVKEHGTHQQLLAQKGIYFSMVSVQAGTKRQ
Description: (§2) Top panel: Rh123 efflux from untreated cells (-) and from cells treated with 50 μM Ara-C (ARA) for 12 hours or with 10 μAra-C for 2 to 3 days.
For data set [3] the following is noted: clinical trials; cited from earlier work.
Data set [4] deals with MDR1. Nature of the data set: Inhibition of cytotoxic drug (Ara-C) induced MDR1 expression by protein kinase inhibitors. Type of data set: cell-based, human. The protocol: FIG. 5. Effect of protein kinase inhibitors on MDR1 mRNA induction by cytotoxic drugs in H9 cells. […]
as §1
(where β2 M represents β2 microglobulin). PCR was performed for β2 M experiments under a regime consisting of 1 cycle comprising denaturation at 94° C. for 3 minutes, primer annealing at 60° C. for 30 seconds, and primer extension at 72° C. for 1 minute, followed by 19 cycles comprising denaturation at 94° C. for 30 seconds, primer annealing at 60° C. for 30 seconds, and primer extension at 72° C. for 1 minute, followed by a final cycle comprising denaturation at 94° C. for 30 seconds, primer annealing at 60° C. for 30 seconds, and primer extension at 72° C. for 5 minutes. MDR1 cDNA sequences were amplified using the identical protocol as for β2 M, but extending the amplification from 19 cycles to 25 cycles. In addition, the cDNA-PCR amplification protocol contained the following modifications: (i) Taq DNA polymerase was added to the PCR mixtures after initial heating of the samples to 94° C. (ii) The yield of the β2 -microglobulin-specific band, obtained after 22-28 cycles of PCR, was used as the primary criterion for equalizing the starting amounts of the cDNA templates in different preparations, in order to account for differential RNA degradation in cells subjected to different types of treatment. […] PCR products were detected by autoradiography.
Cells were plated in 6-well Falcon tissue culture plates at 3,300 cells per well, and incubated in the appropriate concentrations of drugs. Each of the protein kinase inhibitors to be tested were added at their appropriate final concentrations 45 minutes prior to MDR1 induction by the addition of Ara-C or TPA, with the exception of herbimycin A, which was added 12 hours prior to Ara-C or TPA, and tyrphostins A25 and B46, which were each added 16 hours prior to MDR1 induction by the addition of Ara-C or TPA. Cells were incubated overnight (TPA) or for 10 hours (Ara-C) at 37° C. under an atmosphere of 5% CO2 after the addition of the MDR1 inducing agents before harvesting for cDNA-PCR analysis.
In addition to these conditions, the analysis of certain drugs imposed added requirements. For experiments using calphostin C, cells were incubated under direct white light illumination. For experiments using D,L-threo-sphingosine, the cell culture medium was pre-treated with the appropriate concentration of the drug for one hour at 37° C. with continuous gentle mixing. After this pre-treatment, cells were resuspended in media supplemented with drug and incubated for 45 minutes as described above.
cDNA-PCR analyses on each culture treated with drugs, or in control cultures incubated in the absence or presence of Ara-C or TPA alone, were performed as described in Section 6.1.3 above.
To further evaluate the capacity of protein kinase inhibitors to suppress MDR1 induction by cytotoxic drugs and PKC agonists, H-9 human T cell leukemia cells were used in cDNA-PCR assays to examine induced MDR1 mRNA expression levels in the presence of such protein kinase inhibitors.

The next data set has as its system PKC. The conditions noted are these: cited from earlier work; for IC50: Hidaka et al., 1984.
A further data set has as its target protein kinase A. The conditions noted are these: Hidaka et al., 1984; cited from earlier work.
Data set [5] deals with MDR1. The conditions noted are these: cited from earlier work.
The target of data set [6] is T1, P-glycoprotein.
Description: as §2
The subject of a further data set is tumor. The conditions noted are these: nude mice, i.p. 20 mg/kg; cited from earlier work.

As for `Nc1ccn([C@@H]2O[C@H](CO)[C@@H](O)[C@@H]2O)c(=O)n1` [Ara-C, 1-β-D-arabinofuranosylcytosine], the “maintenance of MDR1 expression after removal of the drug” value is on record as “up to 11 weeks” in the data set on MDR1 [1] (Ara-C treated K562 population) and “least several weeks” in the data set on MDR1 [1] (K562 cells treated 3-5 days, then grown in absence of drug). In addition, the “MDR1 mRNA expression” value with MDR1 [1] (EJ bladder carcinoma, 10 μM, 4 days) is recorded as “activated MDR1 mRNA expression”; with MDR1 [1] (H9 T-cell leukemia), “activated MDR1 mRNA expression”; with MDR1 [1] (KB-3-1 epidermoid carcinoma, 2 days), “activated MDR1 mRNA expression”. Also, the “MDR1 mRNA expression relative to β2 -glycoprotein” value in the data set on MDR1 [1] (K562 cells, Ara-C) is “dose-dependent increase in MDR1 mRNA expression”. Also, the “P-glycoprotein expression (Rh123 accumulation or UIC2 immunoreactivity)” value with MDR1 [1] (KG1 leukemia cells, Ara-C (10 μM, 1.5 days)) is given as “increased P-glycoprotein expression”. In the data set on MDR1 [1] (human leukemia and solid-tumor derived cell lines, subpopulation of treated cells), the “MDR1 induction, mRNA and protein levels” value is “MDR1 induction, both at the mRNA and at the protein levels, was observed”. Further, in the data set on MRP, the “effect on MRP expression” value is reported as “slight decrease in MRP expression”. Also, at P-glycoprotein [2], the “subpopulation of live cells showing efflux of Rh123” value was 3-17%.

Turning to `CCCCCCCCCCCCCCCCSCC(COC)COP(=O)([O-])OCC[N+](C)(C)C` (stereo not drawn) [BM41440], the “MTD, oral” value in data set [3] is 5 mg/kg body weight.

A word on the IC50: it is the concentration at which inhibition is half-maximal. As to `CC1CNCCN1S(=O)(=O)c1cccc2cnccc12` (stereo not drawn) [H7], the “prevention of MDR1 induction by chemotherapeutic drugs” value with MDR1 [4] (50 μM) is “prevent MDR1 induction”. Further, the IC50 was 6 µM with PKC and 3 µM at protein kinase A.

For `N=C(N)NCCNS(=O)(=O)c1cccc2cnccc12` [HA1004], the “inhibition of MDR1 induction by Ara-C” value with MDR1 [4] (H9 cells, 60 μM HA1004, 50 μM Ara-C 22 hr) was “no significant inhibition”. Besides, the “prevention of MDR1 induction” value in the data set on MDR1 [4] (protein kinase inhibitor inactive against PKC) is given as “totally ineffective in preventing MDR1 induction”. Besides, the IC50 in the data set on PKC is 40 µM; on protein kinase A it was 2.3 µM.

Turning to `O=[As][O-].[Na+]` [arsenite], in the data set with MDR1 [5], the MDR1 expression result was “increased”.

`COc1cccc2c1C(=O)c1c(O)c3c(c(O)c1C2=O)C[C@@](O)(C(C)=O)C[C@@H]3O[C@H]1C[C@H](N)[C@H](O)[C@H](C)O1` [daunorubicin]: in the data set with MDR1 [1], the “MDR1 induction, mRNA and protein levels” value is “MDR1 induction, both at the mRNA and at the protein levels, was observed”; the “MDR1 mRNA induction” value is recorded as “induce MDR1 mRNA expression”. Further, the “treated cells showing efflux of Rh123 or DiOC2 (3)” value on P-glycoprotein [6] is recorded as 3-10%.

With `CCCCCCCCCCCCCCCCSCC(COC)COP(=O)([O-])OCC[N+](C)(C)C` (stereo not drawn) [ilmofosine], in data set [3], the “MTD, oral” value is 200 mg/day.

Consider `O=c1c(O)c(-c2ccc(O)c(O)c2)oc2cc(O)cc(O)c12` [quercetin], for which the “inhibition of protein kinase C” value in the data set with PKC (literature) is listed as “inhibition of PKC activity”. Besides, in the data set with tumor, the “potentiation of anti-tumor effect of cisplatin” value is listed as “potentiate the anti-tumor effect of cisplatin”. The “effect on arsenite-induced increase in MDR1 expression” value in the data set with MDR1 [5] is “can prevent an increase in MDR1 expression”.

Regarding `CC[C@]1(O)C[C@@H]2CN(CCc3c([nH]c4ccccc34)[C@@](C(=O)OC)(c3cc4c(cc3OC)N(C)[C@H]3[C@@](O)(C(=O)OC)[C@H](OC(C)=O)[C@]5(CC)C=CCN6CC[C@]43[C@@H]65)C2)C1` [vinblastine], in the data set with MDR1 [1], the “MDR1 induction, mRNA and protein levels” value was “MDR1 induction, both at the mRNA and at the protein levels, was observed”; the “MDR1 mRNA expression” value was “MDR1 mRNA expression was induced”; the “MDR1 mRNA induction” value was “induce MDR1 mRNA expression”. Moreover, the “treated cells showing efflux of Rh123 or DiOC2 (3)” value at P-glycoprotein [6] was 3-10%.
